Assay [1] concerns SU-DHL-4 cells. Nature of the assay: 14-day cell proliferation assay (CellTiter Glo). Type of assay: cell-based. The note with it: Homo sapiens, SU-DHL4 cells, 14 days. The method, then:
The volume of medium containing 2000 cells in the control well was calculated and this volume of cells was transferred from every well of the assay plates to the corresponding well of the fresh plates containing compound. After 14 days, CellTiter Glo reagent (Promega) was added to the medium in each well of the assay plate at a ratio of 1:2, mixed on a plate shaker, then incubated at room temperature for 10 minutes. Luminescence was measured using an Envision plate reader (Perkin Elmer) and the relative luminescence at each compound concentration, compared to DMSO alone, was calculated. IC50 were determined using a 4-parameter curve fit in Dotmatics (Bishops Stortford, UK).

For assay [2], the target named is BCL6-NCOR2(SMRT) corepressor protein-protein interaction (Homo sapiens (Human), UniProt P41182). In words: NanoBRET cell assay in transfected HEK293T cells. The note with it: further generated data (Table 2b); HEK293T cells, 6 hr; read-out: NanoBRET cell pIC50 (converted). Format: cell-based.
Assay [3] deals with human BCL6 BTB domain (Trx-6xHis-BCL6) (Homo sapiens (Human), UniProt P41182). In words: HTRF in vitro assay (BCL6 BTB domain / BCOR-AF633 peptide). Format: binding. As to conditions: for IC50: read-out: HTRF pIC50 (converted). On the technique in general: TR-FRET usually uses a lanthanide donor and a delayed reading to cut background.
Procedure: The % inhibition at each concentration was calculated by normalising FRET ratio to the appropriate high (DMSO with all reagents) and low (DMSO without BCL6) controls.
The mark [4] stands for this setting: further generated data (Table 1b), 1 nM Trx-6xHis-BCL6, 0.5 nM anti-6xHis-Terbium cryptate.
Where [5] appears, read: initially generated data (Table 1a), 10 nM Trx-6xHis-BCL6, 1 nM anti-6xHis-Terbium cryptate.

Structures are written as SMILES.

In assay [1], `Cn1c(=O)cc(NC(C)(C)c2ncccn2)c2cc(Nc3ccnc(Cl)c3Cl)ccc21` [Example 6b, 6-((2,3-dichloropyridin-4-yl)amino)-1-methyl-4-((2-(pyrimidin-2-yl)propan-2-yl)amino)quinolin-2(1H)-one] yielded a concentration for 50% growth inhibition (GI50) of 2130 nM. Also, in assay [2], the IC50 is 1380 nM. In addition, the “HTRF pIC50” value in assay [3] (setting [4]) amounted to 6.81.

For `CC(Nc1nc(=O)n(C)c2ccc(Nc3nc(N4C[C@@H](C)C(F)(F)[C@@H](C)C4)ncc3Cl)cc12)c1ncccn1` (mixture of isomers) [Example 12h, rac-6-((5-chloro-2-((3R,5S)-4,4-difluoro-3,5-dimethylpiperidin-1-yl)pyrimidin-4-yl)amino)-1-methyl-4-((1-(pyrimidin-2-yl)ethyl)amino)quinazolin-2(1H)-one], it took 340 nM to inhibit growth in assay [1] by half (GI50). Also, the IC50 in assay [3] (setting [4]) was 251 nM.

As for `CC(Nc1cc(=O)n(C)c2ccc(Nc3ccnc(Cl)c3C#N)cc12)c1ncc(N2CCOC(C(F)(F)F)C2)cn1` (stereo not drawn) [Example 10d, 2-chloro-4-((1-methyl-2-oxo-4-((1-(5-(2-(trifluoromethyl)morpholino)pyrimidin-2-yl)ethyl)amino)-1,2-dihydroquinolin-6-yl)amino)nicotinonitrile], the GI50 in assay [1] was 1480 nM. For the same molecule, the IC50 in assay [2] was 589 nM. Further, in assay [3] (setting [4]), the “HTRF pIC50” value came out at 7.33.

`Cn1c(=O)cc(NC(C)(C)c2ncccn2)c2cc(Nc3cc(C(=O)N4CC(C(F)(F)F)C4)nc(Cl)c3C#N)ccc21` [Example 8d, 2-chloro-4-((1-methyl-2-oxo-4-((2-(pyrimidin-2-yl)propan-2-yl)amino)-1,2-dihydroquinolin-6-yl)amino)-6-(3-(trifluoromethyl)azetidine-1-carbonyl)nicotinonitrile]: halving of growth in assay [1] (GI50) required 450 nM. Further, the IC50 in assay [2] was 240 nM. Also, the “HTRF pIC50” value in assay [3] (setting [4]) worked out at 7.50.

In assay [1], `CC(Nc1cc(=O)n(C)c2ccc(Nc3ccnc(Cl)c3C#N)cc12)c1ncc(N2C[C@@H](C)O[C@@H](C)C2)cn1` (stereo partly drawn) [Example 10b, 2-chloro-4-((4-((1-(5-((2S,6R)-2,6-dimethylmorpholino)pyrimidin-2-yl)ethyl)amino)-1-methyl-2-oxo-1,2-dihydroquinolin-6-yl)amino)nicotinonitrile] had a GI50 of 290 nM. Also, the IC50 in assay [2] is 490 nM. Moreover, the “HTRF pIC50” value in assay [3] (setting [4]) is 7.39.

Turning to `CC(Nc1cc(=O)n(C)c2ccc(Nc3ccnc(Cl)c3C#N)cc12)c1ncc(C2CC2)cn1` (stereo not drawn) [Example 10e, 2-chloro-4-((4-((1-(5-cyclopropylpyrimidin-2-yl)ethyl)amino)-1-methyl-2-oxo-1,2-dihydroquinolin-6-yl)amino)nicotinonitrile], it took 1720 nM to inhibit growth in assay [1] by half (GI50).

`CC(Nc1cc(=O)n(C)c2ccc(Nc3ccnc(Cl)c3C#N)cc12)c1ncc(-c2cnn(C)c2)cn1` (stereo not drawn) [Example 10c, 2-chloro-4-((1-methyl-4-((1-(5-(1-methyl-1H-pyrazol-4-yl)pyrimidin-2-yl)ethyl)amino)-2-oxo-1,2-dihydroquinolin-6-yl)amino)nicotinonitrile]: it took 460 nM to inhibit growth in assay [1] by half (GI50). In addition, the IC50 in assay [2] was 490 nM. Further, the “HTRF pIC50” value in assay [3] (setting [4]) amounted to 7.45.

In assay [1], `C[C@@H]1CN(c2ncc(Cl)c(Nc3ccc4c(c3)c(NC(C)(C)c3ncccn3)nc(=O)n4C)n2)C[C@H](C)C1(F)F` [Example 25a, 6-((5-chloro-2-((3R,5S)-4,4-difluoro-3,5-dimethylpiperidin-1-yl)pyrimidin-4-yl)amino)-1-methyl-4-((2-(pyrimidin-2-yl)propan-2-yl)amino)quinazolin-2(1H)-one] displayed a GI50 of 110 nM. Also, the “HTRF pIC50” value in assay [3] (setting [4]) worked out at 6.73.

`C[C@@H]1CN(c2ncc(Cl)c(Nc3ccc4c(c3)c(NC(C)(C)c3ncccn3)nc(=O)n4C)n2)C[C@H](C)O1` [Example 26f, 6-[[5-chloro-2-[(2R,6S)-2,6-dimethylmorpholin-4-yl]pyrimidin-4-yl]amino-1-methyl-4-[(1-methyl-1-pyrimidin-2-yl)ethyl)amino]quinazolin-2-one:formic acid (1:1)] showed a GI50 in assay [1] of 440 nM. In addition, the IC50 in assay [2] is 676 nM. Moreover, in assay [3] (setting [4]), the “HTRF pIC50” value is given as 6.99.

With `CNC(=O)c1cc(Nc2ccc3c(c2)c(NC(C)(C)c2ncccn2)cc(=O)n3C)c(C#N)c(Cl)n1` [Example 1u, 6-chloro-5-cyano-N-methyl-4-[[1-methyl-4-[(1-methyl-1-pyrimidin-2-yl-ethyl)amino]-2-oxo-6-quinolyl]amino]pyridine-2-carboxamide], in assay [2], the IC50 was 525 nM. In addition, the “HTRF pIC50” value is given as 7.51 in assay [3] (setting [4]) and 7.44 in assay [3] (setting [5]).

As to `Cc1cc(C)n(-c2ncc(Cl)c(Nc3ccc4c(c3)c(N[C@H](C)C3CC3)cc(=O)n4C)n2)n1` [Example 14c, (R)-6-((5-chloro-2-(3,5-dimethyl-1H-pyrazol-1-yl)pyrimidin-4-yl)amino)-4-((1-cyclopropylethyl)amino)-1-methylquinolin-2(1H)-one], growth in assay [1] was halved (GI50) at 760 nM. In addition, the IC50 in assay [2] is 891 nM. In addition, the “HTRF pIC50” value in assay [3] (setting [4]) turned out to be 6.54.

In the case of `Cn1c(=O)cc(NC(C)(C)c2ncccn2)c2cc(Nc3ccnc(Cl)c3C#N)cnc21` [Example 1x, 2-chloro-4-[[8-methyl-5-[(1-methyl-1-pyrimidin-2-yl-ethyl)amino]-7-oxo-1,8-naphthyridin-3-yl]amino]pyridine-3-carbonitrile], the IC50 in assay [2] was 1580 nM. In addition, the “HTRF pIC50” value was found to be 7.20 in assay [3] (setting [4]) and 6.68 in assay [3] (setting [5]).

Regarding `CC(Nc1nc(=O)n(C)c2ccc(Nc3ccnc(Cl)c3C#N)cc12)c1ncccn1` (stereo not drawn) [Example 10h], the IC50 in assay [2] was 8910 nM. For the same molecule, the “HTRF pIC50” value in assay [3] (setting [4]) is listed as 7.10.

As for `CNC(=O)c1cc(Nc2ccc3c(c2)c(NC(C)c2ncccn2)cc(=O)n3C)c(C#N)cn1` (stereo not drawn) [Example 19c], the values for the IC50 in assay [2] and in assay [3] (setting [4]) were 29500 nM and 891 nM, respectively.

For `CC(Nc1cc(=O)n(C)c2ccc(Nc3cc(N4CCC(C(=O)N(C)C)CC4)ncc3Cl)cc12)c1ncccn1` (stereo not drawn) [Example 15g, 1-(5-chloro-4-((1-methyl-2-oxo-4-((1-(pyrimidin-2-yl)ethyl)amino)-1,2-dihydroquinolin-6-yl)amino)pyridin-2-y1)-N,N-dimethylpiperidine-4-carboxamide], the IC50 in assay [2] is 7240 nM. Further, in assay [3] (setting [4]), the “HTRF pIC50” value is 6.47.

With `COCC1CCN1c1ncc(Cl)c(Nc2ccc3c(c2)c(N[C@H](C)C2CC2)cc(=O)n3C)n1` (stereo partly drawn) [Example 26b, 6-((5-chloro-2-(2-(methoxymethyl)azetidin-1-yl)pyrimidin-4-yl)amino)-4-(((R)-1-cyclopropylethyl)amino)-1-methylquinolin-2(1H)-one: formic acid (1:1)], the IC50 in assay [2] was 2690 nM. In assay [3] (setting [4]), the “HTRF pIC50” value came out at 6.31.

In turn, `CC(Nc1cc(=O)n(C)c2ccc(Nc3ccnc(Cl)c3C#N)cc12)c1ncc(C2CCOCC2)cn1` (stereo not drawn) [Example 10w, 2-chloro-4-[[1-methyl-2-oxo-4-[1-(5-tetrahydropyran-4-ylpyrimidin-2-yl)ethylamino]-6-quinolyl]amino]pyridine-3-carbonitrile] yielded a concentration for 50% growth inhibition (GI50) in assay [1] of 1340 nM. The IC50 in assay [2] is 912 nM. The “HTRF pIC50” value in assay [3] (setting [4]) amounted to 7.58.

For the molecule `CC(Nc1nc(=O)n(C)c2ccc(Nc3nc(N4C[C@@H](C)O[C@@H](C)C4)ncc3Cl)cc12)c1ncccn1` (stereo partly drawn) [Example 26e, 6-[[5-chloro-2-[(2R,6S)-2,6-dimethylmorpholin-4-yl]pyrimidin-4-yl]amino)-1-methyl-4-(1-pyrimidin-2-ylethylamino)quinazolin-2-one], in assay [2], the IC50 is 2880 nM. For the same molecule, in assay [3] (setting [4]), the “HTRF pIC50” value came out at 7.03.

What is called GI50 is the concentration that inhibits growth by half. Lower therefore signals greater sensitivity of the cells.

The record behind these values is patent US11161839B2, “2-quinolone derived inhibitors of BCL6” (Cancer Research Technology Limited, priority 2017, dated 2021).
